Experimental data from ChEMBL document CHEMBL1201862, “PubChem BioAssay data set” (2004).
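Assay format: 96-well plates, 48-hour exposure. Abbreviation: GI50, concentration required for 50% inhibition of growth.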 Calls of active or inactive are those of the source. Cut-off read from the data, not from the text of the source: active = GI50 up to about 1.1 µM and inactive = higher.

Tests used:
Assay in all cases: NCI anticancer screen, dose series, 48 h
CAKI-1 = test system: CAKI-1
NCI-H522 = test system: NCI-H522
K562 = test system: K562
A498 = test system: A498
KM-20L2 = test system: KM-20L2
UO-31 = test system: UO-31
SK-OV-3 = test system: SK-OV-3
IGROV-1 = test system: IGROV-1
NCI-H226 = test system: NCI-H226
SF-539 = test system: SF-539
OVCAR-8 = test system: OVCAR-8
SN12C = test system: SN12C
A549 = test system: A549
LXFL 529 = test system: LXFL 529
HCT-116 = test system: HCT-116
LOX IMVI = test system: LOX IMVI
RXF 393 = test system: RXF 393
TK-10 = test system: TK-10
HT-29 = test system: HT-29
SK-MEL-28 = test system: SK-MEL-28
UACC-257 = test system: UACC-257
UACC-62 = test system: UACC-62
COLO 205 = test system: COLO 205
ACHN = test system: ACHN
CCRF-CEM = test system: CCRF-CEM
DLD-1 = test system: DLD-1
SNB-78 = test system: SNB-78
SK-MEL-5 = test system: SK-MEL-5
NCI-H23 = test system: NCI-H23
786-0 = test system: 786-0
SW-620 = test system: SW-620
HL-60 = test system: HL-60
EKVX = test system: EKVX
OVCAR-4 = test system: OVCAR-4
OVCAR-3 = test system: OVCAR-3
NCI-H460 = test system: NCI-H460
SF-268 = test system: SF-268
HCT-15 = test system: HCT-15
U-251 = test system: U-251
SNB-19 = test system: SNB-19
SF-295 = test system: SF-295
HOP-92 = test system: HOP-92
M19-MEL = test system: M19-MEL
HOP-62 = test system: HOP-62
HCC 2998 = test system: HCC 2998
XF498 = test system: XF498
SNB-75 = test system: SNB-75
HOP-18 = test system: HOP-18
DMS-114 = test system: DMS-114
M14 = test system: M14
Malme-3M = test system: Malme-3M
RPMI-8226 = test system: RPMI-8226
OVCAR-5 = test system: OVCAR-5
KM12 = test system: KM12
MOLT-4 = test system: MOLT-4
SK-MEL-2 = test system: SK-MEL-2
SR = test system: SR

Measured: GI50

COc1ccc2nc(NC(=O)C(=O)NNC(=O)c3ccncc3)sc2c1
inactive: CAKI-1 > 100 µM | NCI-H522 > 100 µM | K562 > 100 µM | A498 > 100 µM | KM-20L2 > 100 µM | UO-31 > 100 µM | SK-OV-3 > 100 µM | IGROV-1 > 100 µM | NCI-H226 > 100 µM | SF-539 > 100 µM | OVCAR-8 > 100 µM | SN12C > 100 µM | A549 > 100 µM | LXFL 529 > 100 µM | HCT-116 > 100 µM | LOX IMVI > 100 µM | RXF 393 > 100 µM | TK-10 > 100 µM | HT-29 > 100 µM | SK-MEL-28 > 100 µM | UACC-257 > 100 µM | UACC-62 > 100 µM | COLO 205 > 100 µM | ACHN > 100 µM | CCRF-CEM > 100 µM | DLD-1 > 100 µM | SNB-78 > 100 µM | SK-MEL-5 > 100 µM | NCI-H23 > 100 µM | 786-0 > 100 µM | SW-620 > 100 µM | HL-60 > 100 µM | EKVX > 100 µM | OVCAR-4 > 100 µM | OVCAR-3 > 100 µM | NCI-H460 > 100 µM | SF-268 > 100 µM | U-251 > 100 µM | SNB-19 > 100 µM | SF-295 > 100 µM | HOP-92 > 100 µM | M19-MEL > 100 µM | HOP-62 > 100 µM | HCC 2998 > 100 µM | XF498 > 100 µM | SNB-75 > 100 µM | HOP-18 > 100 µM | DMS-114 > 100 µM | M14 > 100 µM | Malme-3M > 100 µM
> 100 µM: HCT-15

C[C@]12CCC3[C@@H](C[C@H]4OC(=O)[C@@]35CCC(=O)C=C45)C1CCC2=O (stereo partly drawn)
> 100 µM: HCT-15
inactive: NCI-H522 > 100 µM | K562 > 100 µM | RPMI-8226 > 100 µM | UO-31 > 100 µM | SK-OV-3 > 100 µM | OVCAR-5 > 100 µM | IGROV-1 > 100 µM | NCI-H226 > 100 µM | SF-539 > 100 µM | OVCAR-8 > 100 µM | SN12C > 100 µM | A549 > 100 µM | LXFL 529 > 100 µM | RXF 393 > 100 µM | TK-10 > 100 µM | HT-29 > 100 µM | SK-MEL-28 > 100 µM | UACC-257 > 100 µM | COLO 205 > 100 µM | KM12 > 100 µM | ACHN > 100 µM | CCRF-CEM > 100 µM | DLD-1 > 100 µM | SK-MEL-5 > 100 µM | NCI-H23 > 100 µM | 786-0 > 100 µM | SW-620 > 100 µM | HL-60 > 100 µM | MOLT-4 > 100 µM | EKVX > 100 µM | SK-MEL-2 > 100 µM | OVCAR-3 > 100 µM | NCI-H460 > 100 µM | SF-268 > 100 µM | U-251 > 100 µM | SNB-19 > 100 µM | SF-295 > 100 µM | HOP-92 > 100 µM | M19-MEL > 100 µM | HCC 2998 > 100 µM | XF498 > 100 µM | HOP-18 > 100 µM | SR > 100 µM | DMS-114 > 100 µM | M14 > 100 µM | Malme-3M > 100 µM
